From patent US9561212B2, “Hepatitis C virus inhibitors” (BRISTOL-MYERS SQUIBB COMPANY, priority 2012, dated 2017)
Where two headings read alike, the source gives them in different places.

Tested on: HCV 1b genotype
Assay: microbe, parasite or virus in culture
Assay type: cell-based, Hepatitis C virus
Conditions: HCV 1b replicon
Protocol: An HCV Replicon assay was utilized in the present disclosure, and was prepared, conducted and validated as described in commonly owned PCT/US2006/022197 and in O'Boyle et. al. Antimicrob Agents Chemother. 2005 April; 49(4):1346-53. Assay methods incorporating luciferase reporters have also been used as described (Apath.com).
HCV-neo replicon cells and replicon cells containing resistance substitutions in the NS5A region were used to test the currently described family of compounds.

[1] = read-out: Range: EC50 ranges against HCV 1b
[2] = Hepatitis C virus, read-out: 1b (μM): EC50 (Effective 50% inhibitory concentration) against the HCV 1b genotype
[3] = Hepatitis C virus, read-out: Range: EC50 ranges against HCV 1b

| Compound | EC50 [3] | also measured |
| --- | --- | --- |
| COC(=O)NC(C(=O)N1[C@@H]2C[C@@H]2C[C@H]1c1nc(-c2ccc(-c3ccc(-c4c[nH]c([C@@H]5C[C@H]6C[C@H]6N5C(=O)C(NC(=O)OC)C5C[C@@H]6C[C@@H]6C5)n4)cc3)cc2)c[nH]1)C1C[C@@H]2C[C@@H]2C1 (single isomer, unassigned; diastereomer 2) [QC3.2] | – | EC50 [1]: 0.00501 to 0.1 nM |
| COC(=O)NC(C(=O)N1[C@@H]2C[C@@H]2C[C@H]1c1nc(-c2ccc(-c3ccc(-c4c[nH]c([C@@H]5C[C@H]6C[C@H]6N5C(=O)C(NC(=O)OC)C5[C@H]6COC[C@@H]56)n4)cc3)cc2)c[nH]1)C1[C@H]2COC[C@@H]12 (single isomer, unassigned; diastereomer 2) [QC4.2] | – | EC50 [1]: 0.1 to 0.9 nM |
| COC(=O)N[C@@H](C(=O)N1C(c2nc(-c3ccc(-c4ccc(-c5c[nH]c(C6C[C@H]7CC7N6C(=O)[C@H](NC(=O)OC)C6C[C@@H]7[C@H](C6)C7(F)F)n5)cc4)cc3)c[nH]2)C[C@H]2CC21)C1C[C@@H]2[C@H](C1)C2(F)F (single isomer, unassigned; diastereomer 3) [QC2.3] | – | EC50 (read-out: 1b (μM): EC50 (Effective 50% inhibitory concentration) against the HCV 1b genotype): 1.08 nM; EC50 [1]: 0.9 to 700 nM |
| COC(=O)N[C@@H](C(=O)N1[C@@H]2C[C@@H]2C[C@H]1c1nc(-c2ccc(-c3ccc(-c4c[nH]c([C@@H]5C[C@H]6C[C@H]6N5C(=O)[C@H](NC(=O)OC)[C@H]5C[C@H]6C[C@H]6C5)n4)cc3)cc2)c[nH]1)[C@H]1C[C@H]2C[C@H]2C1 (single isomer, unassigned; diastereomer 3) [QC3.3] | – | EC50 [1]: 0.1 to 0.9 nM |
| COC(=O)NC(C(=O)N1[C@@H]2C[C@@H]2C[C@H]1c1nc(-c2ccc(-c3ccc(-c4c[nH]c([C@@H]5C[C@H]6C[C@H]6N5C(=O)C(NC(=O)OC)[C@H]5C[C@@H]6C[C@@H]6C5)n4)cc3)cc2)c[nH]1)[C@H]1C[C@@H]2C[C@@H]2C1 (single isomer, unassigned; diastereomer 3) [QC5.3] | 0.00501 to 0.1 nM | EC50 [2]: 0.00555 nM |
| COC(=O)NC(C(=O)N1C(c2nc(-c3ccc(-c4ccc(-c5c[nH]c([C@@H]6CC[C@H](C)N6C(=O)C(NC(=O)OC)C6CCC7(CC7)OC6)n5)cc4)cc3)c[nH]2)CC[C@@H]1C)C1CCC2(CC2)OC1 (stereo partly drawn) [Example 1.1] | 0.00501 to 0.1 nM | – |
| COC(=O)NC(C(=O)N1C(c2nc(-c3ccc(-c4ccc(-c5c[nH]c([C@@H]6CC[C@H](C)N6C(=O)C(NC(=O)OC)C6CCC7(CC7)OC6)n5)cc4)cc3)c[nH]2)CC[C@@H]1C)C1CCC2(CC2)OC1 (stereo partly drawn) [Example 1.2] | – | EC50 [1]: 0.00501 to 0.1 nM |
| C=C1CC(C(NC(=O)OC)C(=O)N2[C@@H](C)CC[C@H]2c2ncc(-c3ccc(-c4ccc(-c5cnc([C@@H]6CC[C@H](C)N6C(=O)C(NC(=O)OC)C6CC(=C)C6)[nH]5)cc4)cc3)[nH]2)C1 (stereo partly drawn) [Example 4.2] | 0.1 to 0.9 nM | EC50 [2]: 0.243 nM |
| COC(=O)NC(C(=O)N1[C@@H](C)CC[C@H]1c1ncc(-c2ccc(-c3ccc(-c4cnc([C@@H]5CC[C@H](C)N5C(=O)C(NC(=O)OC)C5CC6(CC6)C5)[nH]4)cc3)cc2)[nH]1)C1CC2(CC2)C1 (stereo partly drawn) [Example 5.2] | 0.9 to 700 nM | EC50 [2]: 9.07 nM |
| COC(=O)N[C@H](C(=O)N1[C@@H](C)CC[C@H]1c1ncc(-c2ccc(-c3ccc(-c4cnc([C@@H]5CC[C@H](C)N5C(=O)[C@@H](NC(=O)OC)[C@@H]5CCO[C@@H](C6CC6)C5)[nH]4)cc3)cc2)[nH]1)[C@@H]1CCO[C@@H](C2CC2)C1 [Example 6] | 0.00501 to 0.1 nM | – |
| COC(=O)N[C@H](C(=O)N1[C@@H](C)CC[C@H]1c1ncc(-c2ccc(-c3ccc(-c4cnc([C@@H]5CC[C@H](C)N5C(=O)[C@@H](NC(=O)OC)[C@@H]5CCO[C@H](C6CC6)C5)[nH]4)cc3)cc2)[nH]1)[C@@H]1CCO[C@H](C2CC2)C1 [Example 7] | 0.00501 to 0.1 nM | – |
| COC(=O)N[C@H](C(=O)N1[C@@H](CF)CC[C@H]1c1ncc(-c2ccc(-c3ccc(-c4cnc([C@@H]5CC[C@H](CF)N5C(=O)[C@@H](NC(=O)OC)[C@H]5CCOC6(CC6)C5)[nH]4)cc3)cc2)[nH]1)[C@H]1CCOC2(CC2)C1 [Example 8] | 0.00501 to 0.1 nM | – |
| COC(=O)N[C@H](C(=O)N1[C@@H](C)CC[C@H]1c1ncc(-c2ccc(-c3ccc(-c4cnc([C@@H]5CC[C@H](C)N5C(=O)[C@@H](NC(=O)OC)[C@H]5C[C@H](C)O[C@@H](C6CC6)C5)[nH]4)cc3)cc2)[nH]1)[C@H]1C[C@H](C)O[C@@H](C2CC2)C1 [Example 9.3, dimethyl ((S,R,S,1S,1′S)-((2S,2′S,5S,5′S)-5,5′-(5,5′-([1,1′-biphenyl]-4,4′-diyl)bis(1H-imidazole-5,2-diyl))bis(2-methylpyrrolidine-5,1-diyl))bis(1-((2R,4S,6S)-2-cyclopropyl-6-methyltetrahydro-2H-pyran-4-yl)-2-oxoethane-2,1-diyl))dicarbamate] | 0.00501 to 0.1 nM | – |
| COC(=O)N[C@H](C(=O)N1[C@@H](C)CC[C@H]1c1ncc(-c2ccc(-c3ccc(-c4cnc([C@@H]5CC[C@H](C)N5C(=O)[C@@H](NC(=O)OC)[C@H]5C[C@@H](C)O[C@H](C6CC6)C5)[nH]4)cc3)cc2)[nH]1)[C@H]1C[C@@H](C)O[C@H](C2CC2)C1 [Example 9.4, dimethyl ((R,S,S,1S,1′S)-((2S,2′S,5S,5′S)-5,5′-(5,5′-([1,1′-biphenyl]-4,4′-diyl)bis(1H-imidazole-5,2-diyl))bis(2-methylpyrrolidine-5,1-diyl))bis(1-((2S,4S,6R)-2-cyclopropyl-6-methyltetrahydro-2H-pyran-4-yl)-2-oxoethane-2,1-diyl))dicarbamate] | 0.00501 to 0.1 nM | EC50 [2]: 0.0093 nM |
| C#C[C@H]1CC[C@@H](c2ncc(-c3ccc(-c4ccc(-c5cnc([C@@H]6CC[C@H](C#C)N6C(=O)[C@@H](NC(=O)OC)C6C[C@@H](C)O[C@H](C)C6)[nH]5)cc4)cc3)[nH]2)N1C(=O)[C@@H](NC(=O)OC)C1C[C@@H](C)O[C@H](C)C1 (stereo partly drawn) [Example 10, dimethyl (4,4′-biphenyldiylbis(1H-imidazole-5,2-diyl((2S,5R)-5-ethynyl-2,1-pyrrolidinediyl)((1S)-1-((2R,6R)-2,6-dimethyltetrahydro-2H-pyran-4-yl)-2-oxo-2,1-ethanediyl)))biscarbamate] | 0.00501 to 0.1 nM | – |
| C#C[C@@H]1CC[C@@H](c2ncc(-c3ccc(-c4ccc(-c5cnc([C@@H]6CC[C@@H](C#C)N6C(=O)[C@@H](NC(=O)OC)C6C[C@@H](C)O[C@H](C)C6)[nH]5)cc4)cc3)[nH]2)N1C(=O)[C@@H](NC(=O)OC)C1C[C@@H](C)O[C@H](C)C1 (stereo partly drawn) [Example 10.1, dimethyl (4,4′-biphenyldiylbis(1H-imidazole-4,2-diyl((2S,5S)-5-ethynyl-2,1-pyrrolidinediyl)((1S)-1-((2R,6R)-2,6-dimethyltetrahydro-2H-pyran-4-yl)-2-oxo-2,1-ethanediyl)))biscarbamate] | 0.1 to 0.9 nM | EC50 [2]: 0.263 nM |
| COC(=O)NC(C(=O)N1[C@@H](C)CC[C@H]1c1nc(-c2ccc(-c3ccc(-c4c[nH]c([C@@H]5CC[C@H](C)N5C(=O)C(NC(=O)OC)=C5CC(C)(C#N)C5)n4)cc3)cc2)c[nH]1)=C1CC(C)(C#N)C1 (stereo partly drawn) [Example 12.1, dimethyl (4,4′-biphenyldiylbis(1H-imidazole-4,2-diyl((2S,5S)-5-methyl-2,1-pyrrolidinediyl)(1-(3-cyano-3-methylcyclobutylidene)-2-oxo-2,1-ethanediyl)))biscarbamate] | 0.9 to 700 nM | – |
| COC(=O)NC(C(=O)N1[C@@H](C)CC[C@H]1c1nc(-c2ccc(-c3ccc(-c4c[nH]c([C@@H]5CC[C@H](C)N5C(=O)C(NC(=O)OC)=C5CC(C)(C#N)C5)n4)cc3)cc2)c[nH]1)=C1CC(C)(C#N)C1 (stereo partly drawn) [Example 12.2, dimethyl (4,4′-biphenyldiylbis(1H-imidazole-4,2-diyl((2S,5S)-5-methyl-2,1-pyrrolidinediyl)(1-(3-cyano-3-methylcyclobutylidene)-2-oxo-2,1-ethanediyl)))biscarbamate] | – | EC50 [1]: 0.9 to 700 nM |
| COC(=O)N[C@H](C(=O)N1[C@@H](C)CC[C@H]1c1ncc(-c2ccc(-c3ccc(-c4cnc([C@@H]5CC[C@H](C)N5C(=O)[C@@H](NC(=O)OC)C5CC6(COC6)C5)[nH]4)cc3)cc2)[nH]1)C1CC2(COC2)C1 (stereo partly drawn) [Example 13, dimethyl (4,4′-biphenyldiylbis(1H-imidazole-5,2-diyl((2S,5S)-5-methyl-2,1-pyrrolidinediyl)((1S)-1-(2-oxaspiro[3.3]hept-6-yl)-2-oxo-2,1-ethanediyl)))biscarbamate] | 0.00501 to 0.1 nM | – |
| COC(=O)N[C@H](C(=O)N1CC2(CCCC2)C[C@H]1c1nc(-c2ccc(-c3ccc(-c4c[nH]c([C@@H]5CC6(CCCC6)CN5C(=O)[C@@H](NC(=O)OC)C5C[C@@H](C)O[C@H](C)C5)n4)cc3)cc2)c[nH]1)C1C[C@@H](C)O[C@H](C)C1 (stereo partly drawn) [Example JLR-1.0, dimethyl (4,4′-biphenyldiylbis(1H-imidazole-4,2-diyl(3S)-2-azaspiro[4.4]nonane-3,2-diyl((1S)-1-((2R,6R)-2,6-dimethyltetrahydro-2H-pyran-4-yl)-2-oxo-2,1-ethanediyl)))biscarbamate] | 0.00501 to 0.1 nM | – |
| COC(=O)N[C@H](C(=O)N1C[C@H](CC2CC2)C[C@H]1c1nc(-c2ccc(-c3ccc(-c4c[nH]c([C@@H]5C[C@@H](CC6CC6)CN5C(=O)[C@@H](NC(=O)OC)C5C[C@@H](C)O[C@H](C)C5)n4)cc3)cc2)c[nH]1)C1C[C@@H](C)O[C@H](C)C1 (stereo partly drawn) [Example JLR-2.0, dimethyl (4,4′-biphenyldiylbis(1H-imidazole-4,2-diyl((2S,4R)-4-(cyclopropylmethyl)-2,1-pyrrolidinediyl)((1S)-1-((2R,6R)-2,6-dimethyltetrahydro-2H-pyran-4-yl)-2-oxo-2,1-ethanediyl)))biscarbamate] | 0.00501 to 0.1 nM | – |
